Assay results published in article PMC7112121 (Bioorganic Chemistry, 2019).
Values after ≈ are worked out from the molar mass of the structure shown. Where two headings read alike, the source gives them in different places.

Experiments:
Coxsackie B4 virus = experiment: Antiviral CPE reduction assay, Coxsackie B4 virus in VERO cells; type: cell-based; settings: for Antiviral EC50 Coxsackie B4 virus: CPE by microscopy, mean of two experiments; for EC50: Enterovirus B, B4, Vero, read-out: Antiviral EC50 Coxsackie B4 virus
ACV^r-HSV-1 = experiment: Antiviral CPE reduction assay, ACVr-HSV-1 in HEL cells; type: cell-based; settings: for Antiviral EC50 ACV^r-HSV-1: HEL cells, CPE by microscopy, mean of two experiments; for EC50: Human alphaherpesvirus 1, HEL, read-out: Antiviral EC50 ACV^r-HSV-1
Vaccinia virus = experiment: microbe, parasite or virus in culture; type: cell-based; settings: for EC50: Orthopoxvirus vaccinia, HEL, read-out: Antiviral EC50 Vaccinia virus
Reovirus-1 = experiment: Antiviral CPE reduction assay, Reovirus-1 in VERO cells; type: cell-based; settings: for Antiviral EC50 Reovirus-1: VERO cells, CPE by microscopy, mean of two experiments; for EC50: Vero, read-out: Antiviral EC50 Reovirus-1
HSV-2 = experiment: Antiviral CPE reduction assay, HSV-2 in HEL cells; type: cell-based, Herpes simplex virus-2; settings: for Antiviral EC50 HSV-2: HEL cells, CPE by microscopy, mean of two experiments; for EC50: Human alphaherpesvirus 2, HEL, read-out: Antiviral EC50 HSV-2
CRFK feline kidney cells = settings: MTS cell viability assay
[1] = system: Mycobacterium tuberculosis H37Rv; settings: for H37Rv Finding Activity: M. tuberculosis H37Rv, MABA in BACTEC 12B medium
Parainfluenza-3 virus = experiment: Antiviral CPE reduction assay, Parainfluenza-3 virus in VERO cells; type: cell-based; settings: for Antiviral EC50 Parainfluenza-3 virus: VERO cells, CPE by microscopy, mean of two experiments; for EC50: Vero, read-out: Antiviral EC50 Parainfluenza-3 virus
[2] = system: Vesicular stomatitis virus; type: cell-based
Sindbis virus = experiment: Antiviral CPE reduction assay, Sindbis virus in VERO cells; type: cell-based; settings: for Antiviral EC50 Sindbis virus: VERO cells, CPE by microscopy, mean of two experiments; for EC50: Sindbis virus, Vero, read-out: Antiviral EC50 Sindbis virus
Punto Toro virus = experiment: Antiviral CPE reduction assay, Punto Toro virus in VERO cells; type: cell-based, Punta toro virus; settings: for Antiviral EC50 Punto Toro virus: VERO cells, CPE by microscopy, mean of two experiments; for EC50: Punta Toro virus, Vero, read-out: Antiviral EC50 Punto Toro virus
[3] = system: human embryonic lung (HEL) fibroblast cells; settings: minimum cytotoxic concentration
HSV-1 = experiment: Antiviral CPE reduction assay, HSV-1 in HEL cells; type: cell-based, Herpes simplex virus-1; settings: for Antiviral EC50 HSV-1: HEL cells, CPE by microscopy, mean of two experiments; for EC50: Human alphaherpesvirus 1, HEL, read-out: Antiviral EC50 HSV-1
VERO cells = settings: minimum cytotoxic concentration
Feline coronavirus = experiment: microbe, parasite or virus in culture; settings: Alphacoronavirus 1, CRFK, read-out: Antiviral EC50 Feline coronavirus
Feline herpesvirus = experiment: Antiviral CPE reduction assay, Feline herpesvirus in CRFK cells; type: cell-based; settings: Felid alphaherpesvirus 1, CRFK, read-out: Antiviral EC50 Feline herpesvirus
DNA virus = experiment: Anti-DNA virus activity in HEL cells; type: cell-based
[4] = system: Mycobacterium tuberculosis H37Rv; experiment: microbe, parasite or virus in culture
[5] = microscopic inspection of cell morphology

Molecule | Cytotoxicity MCC [3, 5] [µg/mL] | Cytotoxicity MCC (VERO cells; [5]) [µg/mL] | EC50 (ACV^r-HSV-1) | EC50 (Vaccinia virus) | EC50 (HSV-2) | EC50 (Coxsackie B4 virus) | EC50 (Reovirus-1) | EC50 (Parainfluenza-3 virus) | EC50 (Sindbis virus) | EC50 (Punto Toro virus) | EC50 (Feline coronavirus) | EC50 (HSV-1) | EC50 (Feline herpesvirus) | also measured
O=C(Cc1csc2nc(-c3ccc(Br)cc3)cn12)NN=C1CCCCC1 [Compound 4b, 6-(4-Bromophenyl)-N^2-(cyclohexylidene)imidazo[2,1-b]thiazole-3-acetohydrazide] | 20 | >100 |  |  |  |  |  |  |  |  |  |  |  | Antiviral EC50 Coxsackie B4 virus (Coxsackie B4 virus; VERO cells): >100 µg/mL; Antiviral EC50 ACV^r-HSV-1 (ACV^r-HSV-1): >100 µg/mL; Antiviral EC50 Vaccinia virus (Vaccinia virus): >100 µg/mL; Antiviral EC50 Reovirus-1 (Reovirus-1): >100 µg/mL; Antiviral EC50 HSV-2 (HSV-2): >100 µg/mL; Cytotoxicity CC50 (CRFK feline kidney cells): >100 µg/mL; H37Rv Finding MIC [1]: >100 µg/mL; IC50 [1]: > 100 µg/mL; H37Rv Finding Activity [1]: Inactive; Antiviral EC50 Parainfluenza-3 virus (Parainfluenza-3 virus): >100 µg/mL; Antiviral EC50 Vesicular stomatitis virus [2]: >100 µg/mL; Antiviral EC50 Sindbis virus (Sindbis virus): >100 µg/mL; Antiviral EC50 Punto Toro virus (Punto Toro virus): >100 µg/mL; Antiviral EC50 HSV-1 (HSV-1): >100 µg/mL
Nc1ccn(C[C@@H](CO)OCP(=O)(O)O)c(=O)n1 [Cidofovir, reference compound] |  |  |  |  |  |  |  |  |  |  |  |  |  | Cytotoxicity MCC ([3]; reference in µM): >250 µM
Nc1nc2c(ncn2COCCO)c(=O)[nH]1 [Acyclovir, reference compound] |  |  | ≥ 112 µM | > 250 µM | 0.5 µM |  |  |  |  |  |  |  |  | 
O=c1[nH]c(=O)n([C@H]2C[C@H](O)[C@@H](CO)O2)cc1/C=C/Br [Brivudine, reference compound] |  |  |  |  | 50 µM |  |  |  |  |  |  |  |  | Cytotoxicity MCC ([3]; reference in µM): >250 µM
CC1SC2(CCC(c3ccc(O)cc3)CC2)N(NC(=O)Cc2csc3nc(-c4ccc(Br)cc4)cn23)C1=O (centres unmarked) [Compound 6d, 2-[6-(4-Bromophenyl)imidazo[2,1-b]thiazole-3-yl]-N-(2-methyl-8-(4-hydroxyphenyl)-3-oxo-1-thia-4-azaspiro[4.5]dec-4-yl)acetamide] | ≥20 | ≥20 | > 100 µg/mL | > 100 µg/mL | > 100 µg/mL | 10 µg/mL | > 100 µg/mL | > 100 µg/mL | > 100 µg/mL | > 100 µg/mL | > 100 µg/mL | > 100 µg/mL | > 100 µg/mL | selectivity index (Coxsackie B4 virus; Coxsackie B4 virus, VERO cells): ≥ 2
CC1SC2(CCCCC2)N(NC(=O)Cc2csc3nc(-c4ccc(Br)cc4)cn23)C1=O (centres unmarked) [Compound 6b, 2-[6-(4-Bromophenyl)imizado[2,1-b]thiazole-3-yl]-N-(2-methyl-3-oxo-1-thia-4-azaspiro[4], [5]dec-4-yl)acetamide] | 20 | 100 |  |  |  |  |  |  |  |  |  |  |  | Antiviral EC50 Coxsackie B4 virus (Coxsackie B4 virus; VERO cells): >100 µg/mL; Antiviral EC50 ACV^r-HSV-1 (ACV^r-HSV-1): >100 µg/mL; Antiviral EC50 Vaccinia virus (Vaccinia virus): >100 µg/mL; Antiviral EC50 Reovirus-1 (Reovirus-1): >100 µg/mL; Antiviral EC50 HSV-2 (HSV-2): >100 µg/mL; Cytotoxicity CC50 (CRFK feline kidney cells): 9.2 µg/mL; Antiviral EC50 Parainfluenza-3 virus (Parainfluenza-3 virus): >100 µg/mL; Antiviral EC50 Vesicular stomatitis virus [2]: >100 µg/mL; Antiviral EC50 Sindbis virus (Sindbis virus): >100 µg/mL; Antiviral EC50 Punto Toro virus (Punto Toro virus): >100 µg/mL; Antiviral EC50 HSV-1 (HSV-1): >100 µg/mL
O=C(Cc1csc2nc(-c3ccc(Br)cc3)cn12)NN=C1CCC(c2ccc(O)cc2)CC1 (centres unmarked) [Compound 4d, 6-(4-Bromophenyl)–N^2-(4-hydroxyphenylcyclohexylidene)imidazo[2,1-b]thiazole-3-acetohydrazide] | >100 | >100 |  |  |  |  |  |  |  |  |  |  |  | Antiviral EC50 Coxsackie B4 virus (Coxsackie B4 virus; VERO cells): >100 µg/mL; Antiviral EC50 ACV^r-HSV-1 (ACV^r-HSV-1): 45 µg/mL; Antiviral EC50 Vaccinia virus (Vaccinia virus): 45 µg/mL; Antiviral EC50 Reovirus-1 (Reovirus-1): >100 µg/mL; Antiviral EC50 HSV-2 (HSV-2): 45 µg/mL; Cytotoxicity CC50 (CRFK feline kidney cells): 68 µg/mL; Antiviral EC50 Parainfluenza-3 virus (Parainfluenza-3 virus): >100 µg/mL; Antiviral EC50 Vesicular stomatitis virus [2]: >100 µg/mL; Antiviral EC50 Sindbis virus (Sindbis virus): >100 µg/mL; Antiviral EC50 Punto Toro virus (Punto Toro virus): >100 µg/mL; Antiviral EC50 HSV-1 (HSV-1): 45 µg/mL; antiviral EC50 values, anti-DNA virus activity (DNA virus): about 45 µg/mL
O=C(Cc1csc2nc(-c3ccc(Br)cc3)cn12)NN1C(=O)CSC12CCCC2 [Compound 5a, 2-[6-(4-Bromophenyl)imidazo[2,1-b]thiazole-3-yl]-N-(3-oxo-1-thia-4-azaspiro[4.4]non-4-yl)acetamide] | 100 | ≥20 | > 100 µg/mL | > 100 µg/mL | > 100 µg/mL | > 100 µg/mL | > 100 µg/mL | > 100 µg/mL | > 100 µg/mL | > 100 µg/mL | > 100 µg/mL | > 100 µg/mL | > 100 µg/mL | H37Rv Finding MIC [1]: 8.453 µg/mL; H37Rv Finding Activity [1]: Active
NC(=O)c1ncn([C@@H]2O[C@H](CO)[C@@H](O)[C@H]2O)n1 [Ribavirin, reference compound] |  |  |  |  |  | > 250 µM | > 250 µM | 50 µM | > 250 µM | 38 µM |  |  |  | Cytotoxicity MCC (VERO cells; reference in µM): >250 µM
dextran sulphate MW 5,000 [DS-5,000, reference compound] |  | >100 |  |  |  |  |  |  |  |  |  |  |  | Antiviral EC50 Reovirus-1 (Reovirus-1): ≥100 µg/mL; Antiviral EC50 Parainfluenza-3 virus (Parainfluenza-3 virus): >100 µg/mL
Nc1nc(O)c2ncn(COC(CO)CO)c2n1 [Ganciclovir, reference compound] |  |  | 60 µM | > 100 µM | 0.03 µM |  |  |  |  |  | > 100 µM | 0.025 µM | 1.9 µM | Cytotoxicity MCC ([3]; reference in µM): >100 µM
O=C(Cc1csc2nc(-c3ccc(Br)cc3)cn12)NN1C(=O)CSC12CCCCC2 [Compound 5b, 2-[6-(4-Bromophenyl)imidazo[2,1-b]thiazole-3-yl]-N-(3-oxo-1-thia-4-azaspiro[4.5]dec-4-yl)acetamide] | >100 | >100 | > 100 µg/mL | > 100 µg/mL | > 100 µg/mL | > 100 µg/mL | > 100 µg/mL | > 100 µg/mL | > 100 µg/mL | > 100 µg/mL | > 100 µg/mL | > 100 µg/mL | > 100 µg/mL | H37Rv Finding MIC [1]: 1.566 µg/mL; H37Rv Finding Activity [1]: Active
CC1SC2(CCCC2)N(NC(=O)Cc2csc3nc(-c4ccc(Br)cc4)cn23)C1=O (centres unmarked) [Compound 6a, 2-[6-(4-Bromophenyl)imidazo[2,1-b]thiazole-3-yl]-N-(2-methyl-3-oxo-1-thia-4-azaspiro[4.4]non-4-yl)acetamide] | ≥20 | 100 | > 100 µg/mL | > 100 µg/mL | > 100 µg/mL | > 100 µg/mL | > 100 µg/mL | > 100 µg/mL | > 100 µg/mL | > 100 µg/mL | > 100 µg/mL | > 100 µg/mL | > 100 µg/mL | 
CC1SC2(CCC(c3ccccc3)CC2)N(NC(=O)Cc2csc3nc(-c4ccc(Br)cc4)cn23)C1=O (centres unmarked) [Compound 6c, 2-[6-(4-Bromophenyl)imidazo[2,1-b]thiazole-3-yl]-N-(2-methyl-8-phenyl-3-oxo-1-thia-4-azaspiro[4.5]dec-4-yl)acetamide] | 20 | 20 | > 100 µg/mL | > 100 µg/mL | > 100 µg/mL | > 100 µg/mL | > 100 µg/mL | > 100 µg/mL | > 100 µg/mL | > 100 µg/mL | > 100 µg/mL | > 100 µg/mL | > 100 µg/mL | 
O=C(Cc1csc2nc(-c3ccc(Br)cc3)cn12)NN1C(=O)CSC12CCC(c1ccccc1)CC2 (centres unmarked) [Compound 5c, 2-[6-(4-Bromophenyl)imidazo[2,1-b]thiazole-3-yl]-N-(3-oxo-8-phenyl-1-thia-4-azaspiro[4.5]dec-4-yl)acetamide] | 20 | 20 | > 100 µg/mL | > 100 µg/mL | > 100 µg/mL | > 100 µg/mL | > 100 µg/mL | > 100 µg/mL | > 100 µg/mL | > 100 µg/mL | > 100 µg/mL | > 100 µg/mL | > 100 µg/mL | H37Rv Finding Activity [1]: Active; MIC ([4]; read-out: H37Rv Finding MIC): 0.854 µg/mL (≈ 1.47 µM); IC50 ([4]; read-out: H37Rv Finding lC50): 0.76 µg/mL (≈ 1.31 µM)
Urtica dioica agglutinin (protein, UniProt P11218 24-372, looked up) Lectin/endochitinase 1: QRCGSQGGGGTCPALWCCSIWGWCGDSEPYCGRTCENKCWSGERSDHRCGAAVGNPPCGQDRCCSVHGWCGGGNDYCSGSKCQYRCSSSVRGPRVALSGNSTANSIGNVVVTEPLFDQMFSHRKDCPSQGFYSYHSFLVAAESFPAFGTIGDVATRKREVAAFLAHISQATSGERSDVENPHAWGLCHINTTTVTENDFCTSSDWPCAAGKKYSPRGPIQLTHNFNYGLAGQAIGEDLIQNPDLVEKDPIISFKTALWFWMSQHDNKPSCHDIVLNANSAANRIPNKGVIGNIISRAFGHDDFAVRSSSIGFYKRYCDMLGVSYGHDLKYWFDNTPSSEFQRIQMRVAA |  |  |  |  |  |  |  |  |  |  |  |  |  | Cytotoxicity CC50 (CRFK feline kidney cells): 29 µg/mL
